Results: patent US7445897B2, “Sequence variants of multi-drug resistance genes, MDR1 and MRP1, and methods for assessment of drug penetration and disposition” (University of Washington, priority 2004, dated 2008)
Read-outs that look alike come from different tables or passages of the source.

Columns and labels:
[1] = healthy human subjects; Greiner et al. 1999; cited from earlier work
[2] = target: T1, rMRP1 (Rattus norvegicus, UniProt Q8CG09); assay: Calcein efflux in rMRP1-expressing MDCK-II cells; type: cell-based; settings: indomethacin 100 μM, MK571 10 μM
T1 construct: expressed in transfected cells
Source text: These recombinant cells were derived from MDCK-II epithelial cells that form tight junctions, suitable for transepithelial transport assessment. Several stable clones of epithelial cells that consistently express rMRP1 were constructed, which could be differentiated to form a polarized monolayer for transepithelial flux studies. […] The cells that consistently over-expressed rMRP1 were expanded from a single cell clone and analyzed for MRP1 function.

[3] = system: Pgp (MDR1 and 1199 variants) in recombinant HEK cells; assay: Doxorubicin intracellular accumulation in recombinant HEK cells; type: cell-based, human; settings: recombinant HEK cells expressing MDR1, any variant
Protocol: Cells were washed with ice-cold PBS, trypsinized, and lysed in 0.5% deoxycholic acid. To precipitate the proteins tricholoracetic acid was added to 5% and the cell lysates were incubated for 30 min at 4° C. and centrifuged at 20,000 g.

[4] = target: P-gp (MDR11199, G1199A) in recombinant LLC-PK1 cells (Homo sapiens, UniProt P08183, S400N)
[5] = van Heeswijk et al. 2001; cited from earlier work
[6] = system: P-gp (MDR11199, G1199A) in recombinant LLC-PK1 cells; settings: human, LLC-PK1
[7] = system: LLC-PK1 control cells
[8] = system: HEK293 control cells; assay: Intracellular levels of Rhodamine123 in HEK cells; type: cell-based, human
[9] = target: T2, MDR1wt in recombinant HEK cells (Homo sapiens, UniProt P08183, G185V/S893A); assay: Intracellular levels of Rhodamine123 in HEK cells; type: cell-based
T2 construct: full-length MDR1 cDNA was generated using the high-fidelity protocol developed previously; expressed in transfected cells

[10] = target: T3, MDR1G1199T in recombinant HEK cells (Homo sapiens, UniProt P08183, G185V/S400I/S893A); assay: Intracellular levels of Rhodamine123 in HEK cells; type: cell-based
T3 construct: full-length MDR1 cDNA was generated using the high-fidelity protocol developed previously; expressed in transfected cells

[11] = target: T4, MDR1G1199A in recombinant HEK cells (Homo sapiens, UniProt P08183, G185V/S400N/S893A); assay: Intracellular levels of Rhodamine123 in HEK cells; type: cell-based
T4 construct: full-length MDR1 cDNA was generated using the high-fidelity protocol developed previously; expressed in transfected cells

[12] = target: T1, rMRP1; assay: Transepithelial transport in differentiated rMRP1-MDCK cells; type: in vitro ADME
Source text: These stable recombinant cells can be used to evaluate drug candidates that are either MRP1 substrates or inhibitors, as well as further elucidate MRP1 structure and function.

[13] = system: MDR1 (wild type); assay: Cytotoxic drug sensitivity assay (MTS); type: cell-based, human; settings: human, HEK293 cells recombinantly expressing MDR1 wild type, HEK MDR1 WT; 72hours, MTS; read-out: EC50 (Mean ± S.D.)
[14] = system: MDR1 (G1199A variant); assay: in vitro; settings: human
[15] = system: MDR1 (G1199T variant); assay: Cytotoxic drug sensitivity assay (MTS); type: cell-based, human; settings: human, HEK293 cells recombinantly expressing MDR1 G1199T; HEK MDR1 G1199T; 72hours, MTS; read-out: EC50 (Mean ± S.D.)
[16] = system: HEK negative control cells; assay: Cytotoxic drug sensitivity assay (MTS); type: cell-based, human; settings: Homo sapiens, 72 h, HEK Control; 72hours, MTS; read-out: EC50 (Mean ± S.D.)
[17] = system: LLC-PK1 control cells; assay: Cytotoxic drug sensitivity assay (3H-thymidine); type: cell-based, porcine; settings: Sus scrofa, 72 h, 3 days with drug
Protocol: (§1) On the second day of the incubation, 1 μCi of ^3H-thymidine (specific activity: 81.1 Ci/mmole) was added to each well and incubated overnight. Cells were harvested on day 3 with a cell harvester.
(§2) Dose response analysis was performed for doxorubicin, vincristine and vinblastine. […] TRANSEPITHELIAL TRANSPORT

[18] = system: recombinant MDR1wt LLC-PK1 cells; assay: Cytotoxic drug sensitivity assay (3H-thymidine); type: cell-based, porcine
Protocol: as §1, §2

[19] = system: recombinant MDR11199 LLC-PK1 cells; assay: Cytotoxic drug sensitivity assay (3H-thymidine); type: cell-based, porcine
Protocol: as §1, §2

[20] = protease inhibitor + GF120918 (1 μM)
[21] = 0.5 uM, 30 min load, 30 min efflux

T2 sequence (P08183 whole entry G185V/S893A): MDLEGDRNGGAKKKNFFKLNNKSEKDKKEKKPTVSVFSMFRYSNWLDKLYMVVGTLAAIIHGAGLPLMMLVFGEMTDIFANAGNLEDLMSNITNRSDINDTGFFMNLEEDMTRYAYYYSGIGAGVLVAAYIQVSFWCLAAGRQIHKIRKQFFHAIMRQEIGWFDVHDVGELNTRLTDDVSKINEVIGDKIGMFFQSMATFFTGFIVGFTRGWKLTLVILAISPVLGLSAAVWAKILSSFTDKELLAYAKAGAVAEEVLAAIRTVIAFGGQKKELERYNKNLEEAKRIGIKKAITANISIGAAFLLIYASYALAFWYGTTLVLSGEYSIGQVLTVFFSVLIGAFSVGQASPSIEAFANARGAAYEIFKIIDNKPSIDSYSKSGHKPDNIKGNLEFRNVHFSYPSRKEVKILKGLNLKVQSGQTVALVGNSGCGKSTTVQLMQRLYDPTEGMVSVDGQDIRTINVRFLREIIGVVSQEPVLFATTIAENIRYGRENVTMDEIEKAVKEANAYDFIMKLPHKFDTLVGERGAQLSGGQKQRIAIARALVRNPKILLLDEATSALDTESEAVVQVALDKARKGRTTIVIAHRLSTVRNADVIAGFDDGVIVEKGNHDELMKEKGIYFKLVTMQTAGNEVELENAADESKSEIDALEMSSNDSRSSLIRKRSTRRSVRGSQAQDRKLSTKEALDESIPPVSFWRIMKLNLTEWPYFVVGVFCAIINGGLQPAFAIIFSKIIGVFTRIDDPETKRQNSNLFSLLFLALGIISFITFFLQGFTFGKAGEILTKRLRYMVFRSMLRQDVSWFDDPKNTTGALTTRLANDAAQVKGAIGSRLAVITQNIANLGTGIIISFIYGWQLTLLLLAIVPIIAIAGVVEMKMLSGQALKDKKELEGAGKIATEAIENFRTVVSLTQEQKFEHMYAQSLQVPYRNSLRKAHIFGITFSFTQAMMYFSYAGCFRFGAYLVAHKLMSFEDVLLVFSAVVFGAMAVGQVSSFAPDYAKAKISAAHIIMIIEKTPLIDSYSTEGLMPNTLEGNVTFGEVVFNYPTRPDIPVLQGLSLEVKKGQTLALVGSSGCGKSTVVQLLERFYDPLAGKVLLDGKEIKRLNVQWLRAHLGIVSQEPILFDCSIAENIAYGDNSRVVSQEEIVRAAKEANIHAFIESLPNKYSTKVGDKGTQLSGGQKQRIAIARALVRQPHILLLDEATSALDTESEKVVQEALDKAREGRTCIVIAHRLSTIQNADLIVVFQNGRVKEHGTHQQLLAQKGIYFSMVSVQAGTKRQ
T4 sequence (P08183 whole entry G185V/S400N/S893A): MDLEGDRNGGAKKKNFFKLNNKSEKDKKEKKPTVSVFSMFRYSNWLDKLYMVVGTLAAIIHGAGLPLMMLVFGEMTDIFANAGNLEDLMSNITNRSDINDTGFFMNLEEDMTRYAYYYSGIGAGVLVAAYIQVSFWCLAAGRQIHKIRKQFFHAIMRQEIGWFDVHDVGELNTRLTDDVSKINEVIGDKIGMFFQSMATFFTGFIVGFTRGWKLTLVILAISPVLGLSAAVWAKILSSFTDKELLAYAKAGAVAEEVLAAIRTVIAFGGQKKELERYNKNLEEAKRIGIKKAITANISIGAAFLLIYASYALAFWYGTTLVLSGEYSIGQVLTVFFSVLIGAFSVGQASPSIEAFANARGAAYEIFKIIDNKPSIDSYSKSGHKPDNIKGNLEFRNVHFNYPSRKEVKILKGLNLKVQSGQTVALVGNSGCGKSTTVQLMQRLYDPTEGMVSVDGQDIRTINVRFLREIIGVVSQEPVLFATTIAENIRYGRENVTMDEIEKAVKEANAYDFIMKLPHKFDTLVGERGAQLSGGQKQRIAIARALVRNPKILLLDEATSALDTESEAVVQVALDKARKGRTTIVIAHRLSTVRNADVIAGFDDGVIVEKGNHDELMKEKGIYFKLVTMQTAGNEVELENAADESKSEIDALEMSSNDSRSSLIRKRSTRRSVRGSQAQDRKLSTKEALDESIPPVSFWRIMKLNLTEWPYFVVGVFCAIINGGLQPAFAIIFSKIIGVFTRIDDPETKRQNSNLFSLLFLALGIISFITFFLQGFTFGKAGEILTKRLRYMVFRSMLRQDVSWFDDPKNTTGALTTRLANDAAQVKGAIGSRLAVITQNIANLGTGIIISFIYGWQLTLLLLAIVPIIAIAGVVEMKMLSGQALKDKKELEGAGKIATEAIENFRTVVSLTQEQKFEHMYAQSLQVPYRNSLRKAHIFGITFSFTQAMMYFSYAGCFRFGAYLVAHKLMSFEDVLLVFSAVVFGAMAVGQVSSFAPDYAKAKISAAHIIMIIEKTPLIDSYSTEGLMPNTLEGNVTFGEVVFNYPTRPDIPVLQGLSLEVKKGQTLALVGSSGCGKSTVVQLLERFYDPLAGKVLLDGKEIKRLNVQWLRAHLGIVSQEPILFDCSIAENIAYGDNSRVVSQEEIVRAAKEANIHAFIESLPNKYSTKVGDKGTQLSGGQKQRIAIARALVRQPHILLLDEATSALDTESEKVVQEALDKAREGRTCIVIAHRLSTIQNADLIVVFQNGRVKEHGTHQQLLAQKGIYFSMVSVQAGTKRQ
T1 sequence (Q8CG09 whole entry): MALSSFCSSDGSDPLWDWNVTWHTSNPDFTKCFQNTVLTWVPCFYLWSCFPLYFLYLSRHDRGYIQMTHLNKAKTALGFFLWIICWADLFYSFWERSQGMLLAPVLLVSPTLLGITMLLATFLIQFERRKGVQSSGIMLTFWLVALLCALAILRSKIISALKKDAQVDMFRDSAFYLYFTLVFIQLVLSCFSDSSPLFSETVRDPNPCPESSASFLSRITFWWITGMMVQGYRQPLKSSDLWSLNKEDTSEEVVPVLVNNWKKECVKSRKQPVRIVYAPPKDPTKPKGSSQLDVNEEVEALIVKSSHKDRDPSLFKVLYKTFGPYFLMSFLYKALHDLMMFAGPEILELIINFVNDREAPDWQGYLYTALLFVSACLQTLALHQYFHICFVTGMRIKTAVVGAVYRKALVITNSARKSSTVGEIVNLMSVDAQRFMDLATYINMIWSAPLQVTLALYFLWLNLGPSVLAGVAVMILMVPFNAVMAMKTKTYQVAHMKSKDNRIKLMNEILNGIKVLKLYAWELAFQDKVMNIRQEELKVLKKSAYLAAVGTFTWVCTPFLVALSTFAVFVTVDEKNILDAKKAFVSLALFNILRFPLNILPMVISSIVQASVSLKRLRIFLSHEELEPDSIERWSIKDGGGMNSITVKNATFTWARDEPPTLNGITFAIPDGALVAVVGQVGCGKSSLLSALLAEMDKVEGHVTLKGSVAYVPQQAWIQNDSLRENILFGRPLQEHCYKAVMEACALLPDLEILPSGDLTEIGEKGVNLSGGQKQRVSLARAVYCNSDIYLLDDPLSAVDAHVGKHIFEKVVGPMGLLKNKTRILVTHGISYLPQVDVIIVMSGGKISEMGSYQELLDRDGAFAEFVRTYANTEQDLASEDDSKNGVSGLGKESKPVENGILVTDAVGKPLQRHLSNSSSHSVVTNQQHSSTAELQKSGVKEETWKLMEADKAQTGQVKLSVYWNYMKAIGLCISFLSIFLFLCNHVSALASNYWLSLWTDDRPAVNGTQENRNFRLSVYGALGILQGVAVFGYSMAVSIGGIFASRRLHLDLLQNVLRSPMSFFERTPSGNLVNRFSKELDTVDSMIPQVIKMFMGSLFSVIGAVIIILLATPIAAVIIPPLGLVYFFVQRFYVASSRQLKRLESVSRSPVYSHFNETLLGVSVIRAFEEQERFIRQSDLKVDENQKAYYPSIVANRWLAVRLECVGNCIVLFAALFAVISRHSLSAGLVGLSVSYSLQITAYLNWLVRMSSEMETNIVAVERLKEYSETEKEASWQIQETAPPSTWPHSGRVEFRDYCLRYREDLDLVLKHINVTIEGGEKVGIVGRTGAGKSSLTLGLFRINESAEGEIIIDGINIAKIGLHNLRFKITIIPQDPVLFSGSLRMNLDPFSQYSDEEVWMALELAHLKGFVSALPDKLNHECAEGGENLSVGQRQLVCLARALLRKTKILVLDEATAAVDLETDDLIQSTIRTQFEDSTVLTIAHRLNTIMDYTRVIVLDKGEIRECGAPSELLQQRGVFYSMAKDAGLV

In the case of `C[C@H]1O[C@@H](O[C@H]2[C@@H](O)C[C@H](O[C@H]3[C@@H](O)C[C@H](O[C@H]4CC[C@@]5(C)[C@H](CC[C@@H]6[C@@H]5C[C@@H](O)[C@]5(C)[C@@H](C7=CC(=O)OC7)CC[C@]65O)C4)O[C@@H]3C)O[C@@H]2C)C[C@H](O)[C@@H]1O` [digoxin], the “range in the oral bioavailability from inter-individual variation in intestinal MDR1 expression” value [1] is listed as 7 fold.
In the case of `COc1ccc2c(c1)c(CC(=O)O)c(C)n2C(=O)c1ccc(Cl)cc1` [indomethacin], the “effect of MRP1 inhibitor on calcein efflux” value [2] is reported as “suppressed efflux transport of calcein back to the control level”.
In the case of `COc1cc2c(cc1OC)CN(CCc1ccc(NC(=O)c3cccc4c(=O)c5cccc(OC)c5[nH]c34)cc1)CC2` [GF120918, N-(4-[2-(1,2,3,4-tetrahydro-6,7-dimethoxy-2-isoquinolinyl)ethyl]-phenyl)-9,10-dihydro-5-methoxy-9-oxo-4-acridine carboxamide], the “effect of inhibitor on reduction in intracellular doxorubicin concentration” value [3] is reported as “can be reversed” and the “effect of inhibitor on P-gp efflux of protease inhibitors” value [4] is reported as “effectively blocked P-gp activity”.
For `CC(C)(C)NC(=O)[C@@H]1CN(Cc2cccnc2)CCN1C[C@@H](O)C[C@@H](Cc1ccccc1)C(=O)N[C@H]1c2ccccc2C[C@H]1O` [indinavir], the “oral bioavailability in systemic circulation” value [5] is given as 70%, the “decrease in apical-to-basolateral flux in MDR11199 cells compared to MDR1wt cells” value [6] is given as 1.9 fold and the “Rate of transfer dQ/dt ± s.d., A → B” value [7, 20] is given as 4.26 ± 0.25. For the same compound, the “Rate of transfer dQ/dt ± s.d., B → A” value [7, 20] was 5.99 ± 0.11, the “Rate of transfer dQ/dt ± s.d., A → B” value ([7]; protease inhibitor alone, 5 μM) was 7.17 ± 0.03 and the “Rate of transfer dQ/dt ± s.d., B → A” value ([7]; protease inhibitor alone, 5 μM) was 6.69 ± 0.21.
With Rhodamine-123 [R123] the “% of control” value [8] was 100%, the “Intracellular Rhodamine” value [8, 21] was 4.66 ± 0.14 Unit/mg protein and the “Intracellular Rhodamine” value [9, 21] was 2.26 ± 0.06 Unit/mg protein. For the same compound, the “% of control” value ([9]; converted to HEK293) was 220%, the “Intracellular Rhodamine” value [10, 21] was 1.82 ± 0.17 Unit/mg protein and the “% of control” value ([10]; converted to HEK293) was 260%. The “Intracellular Rhodamine” value [11, 21] was 1.44 ± 0.12 Unit/mg protein and the “% of control” value ([11]; converted to HEK293) was 340%.
With `CC[C@]1(O)C[C@@H]2CN(CCc3c([nH]c4ccccc34)[C@@](C(=O)OC)(c3cc4c(cc3OC)N(C)[C@H]3[C@@](O)(C(=O)OC)[C@H](OC(C)=O)[C@]5(CC)C=CCN6CC[C@]43[C@@H]65)C2)C1` [vinblastine] the directional transepithelial transport [12] was “exhibit directional transepithelial transport”, the EC50 at 72 h [13] was 127 ± 13 nM and the EC50 [14] was 243 ± 15.1 nM. For the same compound, the EC50 at 72 h [15] was 54.7 ± 7.99 nM, the EC50 [16] was 1.45 ± 0.23 nM and the EC50 [17] was 0.66 ± 0.22 nM. For the same compound, the “EC50 fold-change from control” value ([18]; MDR1wt vs LLC-PK1 control) was 2.14 fold, the EC50 ([18]; Sus scrofa, 72 h, MDR1wt LLC-PK1 cells, 3 days with drug) was 1.41 ± 0.51 nM and the “EC50 fold-change from control” value ([19]; MDR11199 vs LLC-PK1 control) was 23.8 fold. The “resistance of MDR11199 cells relative to MDR1wt cells” value ([19]; MDR11199 vs MDR1wt, from EC50) was “about 11 fold”, the EC50 ([19]; Sus scrofa, 72 h, MDR11199 LLC-PK1 cells, 3 days with drug) was 15.7 nM and the “resistance of MDR11199 cells compared with MDR1wt cells” value ([19]; cytotoxicity studies, LLC-PK1) was “more resistant”.
